In ChEMBL document CHEMBL1124760, “Antirhinovirus activity of 6-anilino-9-benzyl-2-chloro-9H-purines” (J Med Chem, 1990):

Tests used:
Type in all cases: functional, organism-based
rhinovirus B4 = assay: Evaluated for inhibitory activity against rhinovirus type 4; details: Rhinovirus B
rhinovirus A1B = assay: Inhibitory activity against rhinovirus type 1B; details: Rhinovirus A
rhinovirus A2 = assay: Evaluated for inhibitory activity against rhinovirus type 2; details: Rhinovirus A
rhinovirus B5 = assay: Evaluated for inhibitory activity against rhinovirus type 5; details: Rhinovirus B

Cc1ccc(Cn2cnc3c(N(C)c4ccccc4)nc(C(F)(F)F)nc32)cc1
IC50 (rhinovirus B4): 5.1 µM | IC50 (rhinovirus A1B): 1.9 µM | IC50 (rhinovirus A2): 2.7 µM | IC50 (rhinovirus B5): > 8 µM

O=[N+]([O-])c1cccc(Nc2nc(Cl)nc3c2ncn3Cc2ccccc2)c1
IC50 (rhinovirus A1B): > 10 µM

Cc1ccc(Nc2nc(Cl)nc3c2ncn3Cc2ccccc2)cc1
IC50 (rhinovirus A1B): 0.3 µM | IC50 (rhinovirus A2): 1.2 µM

Nc1cccc(Nc2nc(Cl)nc3c2ncn3Cc2ccccc2)c1
IC50 (rhinovirus A1B): > 10 µM

CCOC(=O)c1ccc(Nc2nc(Cl)nc3c2ncn3Cc2ccccc2)cc1
IC50 (rhinovirus A1B): > 10 µM

CC(=O)Nc1ccc(Nc2nc(Cl)nc3c2ncn3Cc2ccccc2)cc1
IC50 (rhinovirus A1B): > 20 µM

CS(=O)(=O)c1ccc(Nc2nc(Cl)nc3c2ncn3Cc2ccccc2)cc1
IC50 (rhinovirus B4): 4.5 µM | IC50 (rhinovirus A1B): 2 µM | IC50 (rhinovirus A2): 10.5 µM

Cc1ccc(Cn2cnc3c(N(C)C)nc(C(F)(F)F)nc32)cc1
IC50 (rhinovirus A1B): 0.03 µM

CC(=O)Nc1cccc(Nc2nc(Cl)nc3c2ncn3Cc2ccccc2)c1
IC50 (rhinovirus A1B): 1.3 µM

CS(=O)(=O)c1cccc(Nc2nc(Cl)nc3c2ncn3Cc2ccccc2)c1
IC50 (rhinovirus A1B): > 40 µM

CC(C)Oc1ccc(Nc2nc(Cl)nc3c2ncn3Cc2ccccc2)cc1
IC50 (rhinovirus A1B): > 40 µM

Cc1ccc(Cn2cnc3c(Nc4ccccc4)nc(Cl)nc32)cc1
IC50 (rhinovirus B4): 6.4 µM | IC50 (rhinovirus A1B): 1 µM | IC50 (rhinovirus A2): 3.9 µM | IC50 (rhinovirus B5): > 8 µM

N#Cc1ccc(Nc2nc(Cl)nc3c2ncn3Cc2ccccc2)cc1
IC50 (rhinovirus A1B): 9.4 µM

CCCCOc1cccc(Nc2nc(Cl)nc3c2ncn3Cc2ccccc2)c1
IC50 (rhinovirus A1B): 22 µM

CSc1ccc(Nc2nc(Cl)nc3c2ncn3Cc2ccccc2)cc1
IC50 (rhinovirus B4): 8.7 µM | IC50 (rhinovirus A1B): 0.14 µM | IC50 (rhinovirus A2): 11 µM

CN(C)c1ccc(Nc2nc(Cl)nc3c2ncn3Cc2ccccc2)cc1
IC50 (rhinovirus A1B): > 40 µM

FC(F)(F)c1ccc(Nc2nc(Cl)nc3c2ncn3Cc2ccccc2)cc1
IC50 (rhinovirus B4): 85 µM | IC50 (rhinovirus A1B): 0.3 µM | IC50 (rhinovirus A2): 16.6 µM | IC50 (rhinovirus B5): 200 µM

Clc1nc(Nc2ccccc2)c2ncn(Cc3ccccc3)c2n1
IC50 (rhinovirus B4): 14.2 µM | IC50 (rhinovirus A1B): 1.65 µM | IC50 (rhinovirus A2): 8.3 µM | IC50 (rhinovirus B5): 16.3 µM

Nc1ccc(Nc2nc(Cl)nc3c2ncn3Cc2ccccc2)cc1
IC50 (rhinovirus A1B): > 20 µM

CCCCc1ccc(Nc2nc(Cl)nc3c2ncn3Cc2ccccc2)cc1
IC50 (rhinovirus A1B): > 10 µM

CC(C)Oc1cccc(Nc2nc(Cl)nc3c2ncn3Cc2ccccc2)c1
IC50 (rhinovirus B4): 8.3 µM | IC50 (rhinovirus A1B): 2 µM | IC50 (rhinovirus A2): 3.6 µM

CN(C)c1cccc(Nc2nc(Cl)nc3c2ncn3Cc2ccccc2)c1
IC50 (rhinovirus B4): 8.4 µM | IC50 (rhinovirus A1B): 2.4 µM | IC50 (rhinovirus A2): 3.1 µM | IC50 (rhinovirus B5): 8.5 µM

Fc1cccc(Nc2nc(Cl)nc3c2ncn3Cc2ccccc2)c1
IC50 (rhinovirus B4): 5.5 µM | IC50 (rhinovirus A1B): 1.2 µM | IC50 (rhinovirus A2): 5.6 µM | IC50 (rhinovirus B5): 5.6 µM

CCCCOc1ccc(Nc2nc(Cl)nc3c2ncn3Cc2ccccc2)cc1
IC50 (rhinovirus A1B): > 40 µM

Clc1nc(Nc2ccc(Br)cc2)c2ncn(Cc3ccccc3)c2n1
IC50 (rhinovirus B4): 7.8 µM | IC50 (rhinovirus A1B): 0.3 µM | IC50 (rhinovirus A2): 2.2 µM | IC50 (rhinovirus B5): 9.5 µM

Clc1nc(Nc2cccc(Br)c2)c2ncn(Cc3ccccc3)c2n1
IC50 (rhinovirus B4): 5.7 µM | IC50 (rhinovirus A1B): 2.9 µM | IC50 (rhinovirus A2): 2.8 µM | IC50 (rhinovirus B5): 7.6 µM

Fc1ccc(Nc2nc(Cl)nc3c2ncn3Cc2ccccc2)cc1
IC50 (rhinovirus B4): 6.8 µM | IC50 (rhinovirus A1B): 1.28 µM | IC50 (rhinovirus A2): 6.2 µM | IC50 (rhinovirus B5): 10 µM

CCOC(=O)c1cccc(Nc2nc(Cl)nc3c2ncn3Cc2ccccc2)c1
IC50 (rhinovirus A1B): > 10 µM
